Source: the supplement of paper PMC13380429

Experiments:
Settings in all cases: 72 h
Caco-2 [1] = experiment: drug sensitivity score (DSS) for viability; higher = more toxic; extreme values may be limits of the assay
Vero E6 [2] = experiment: as above
Calu-3 [3] = experiment: as above
HepG2 [4] = experiment: as above
U2OS [5] = experiment: as above
Caco-2 [6] = experiment: cell viability relative to DMSO; higher = less toxic
Vero E6 [7] = experiment: as above
Calu-3 [8] = experiment: as above
HepG2 [9] = experiment: as above
U2OS [10] = experiment: as above
Caco-2 [11] = experiment: relative viability EC50 (midpoint between 100% and the lowest measured viability); higher = less toxic
Vero E6 [12] = experiment: as above
Calu-3 [13] = experiment: as above
HepG2 [14] = experiment: as above
U2OS [15] = experiment: as above

Row | SMILES | drug sensitivity score (Caco-2 [1]) | drug sensitivity score (Vero E6 [2]) | drug sensitivity score (Calu-3 [3]) | drug sensitivity score (HepG2 [4]) | drug sensitivity score (U2OS [5]) | cell viability (Caco-2 [6]; 1 nM) | cell viability (Caco-2 [6]; 10 nM) | cell viability (Caco-2 [6]; 100 nM) | cell viability (Caco-2 [6]; 1000 nM) | cell viability (Caco-2 [6]; 10000 nM) | cell viability (Vero E6 [7]; 1 nM) | cell viability (Vero E6 [7]; 10 nM) | cell viability (Vero E6 [7]; 100 nM) | cell viability (Vero E6 [7]; 1000 nM) | cell viability (Vero E6 [7]; 10000 nM) | cell viability (Calu-3 [8]; 1 nM) | cell viability (Calu-3 [8]; 10 nM) | cell viability (Calu-3 [8]; 100 nM) | cell viability (Calu-3 [8]; 1000 nM) | cell viability (Calu-3 [8]; 10000 nM) | cell viability (HepG2 [9]; 1 nM) | cell viability (HepG2 [9]; 10 nM) | cell viability (HepG2 [9]; 100 nM) | cell viability (HepG2 [9]; 1000 nM) | cell viability (HepG2 [9]; 10000 nM) | cell viability (U2OS [10]; 1 nM) | cell viability (U2OS [10]; 10 nM) | cell viability (U2OS [10]; 100 nM) | cell viability (U2OS [10]; 1000 nM) | cell viability (U2OS [10]; 10000 nM) | relative viability EC50 (Caco-2 [11]) | relative viability EC50 (Vero E6 [12]) | relative viability EC50 (Calu-3 [13]) | relative viability EC50 (HepG2 [14]) | relative viability EC50 (U2OS [15])
1 | CC(C)(C)NC(=O)N[C@H](C(=O)N1C[C@H]2[C@@H]([C@H]1C(=O)NC(CC1CCC1)C(=O)C(N)=O)C2(C)C)C(C)(C)C (stereo not given in full) [Boceprevir] | 0 | 0 | 0 | 0 | 0 | 103% | 94.4% | 108% | 92.5% | 105% | 102% | 100% | 102% | 92.7% | 99.9% | 102% | 95.1% | 95.7% | 100% | 102% | 102% | 102% | 95.6% | 100% | 105% | 102% | 93.7% | 100% | 96.1% | 91.6% | > 10 µM | > 10 µM | > 10 µM | > 10 µM | > 10 µM
2 | C[C@H]1CCc2c(cc(Br)c(F)c2Br)N1C=O [CE3F4] | 0 | 0 | 0.2 | 0 | 0 | 105% | 99.9% | 91.9% | 104% | 88.8% | 103% | 101% | 98.2% | 93.8% | 102% | 105% | 102% | 89.6% | 93.7% | 90% | 110% | 99.2% | 113% | 100% | 103% | 98.3% | 101% | 99.6% | 102% | 96.1% | > 10 µM | > 10 µM | > 10 µM | > 10 µM | > 10 µM
3 | Oc1cc2c(cc1O)[C@H](Cc1cccc3ccccc13)NCC2 [CKD-712] | 0 | 0 | 0 | 0.3 | 0 | 88.6% | 94.2% | 105% | 98.4% | 92.4% | 102% | 100% | 100% | 99% | 95.7% | 105% | 95% | 108% | 105% | 102% | 106% | 101% | 97.9% | 99.7% | 84.8% | 101% | 93.8% | 98.6% | 112% | 96.6% | > 10 µM | > 10 µM | > 10 µM | > 10 µM | > 10 µM
4 | CCC[C@H](Nc1nc(-c2ccc(NC(=O)NCC)c(OC)c2)ncc1C)c1cccnc1 [CYT-997] | 12.4 | 14.4 | 17.4 | 17.9 | 21.3 | 97.9% | 93.5% | 84% | 42.6% | 38.2% | 95.7% | 100% | 98.5% | 22% | 23.7% | 99.4% | 96% | 54.4% | 37% | 37.5% | 101% | 106% | 51.8% | 36.3% | 33.3% | 97.2% | 102% | 45.6% | 19.1% | 18.2% | 0.198 µM | 0.303 µM | 0.0547 µM | 0.0687 µM | 0.0761 µM
5 | O=C1Nc2ccc(Cl)c3c2C1(CCCCN1CC=C(c2ccc(Cl)cc2)CC1)CCC3 (stereo not given) [DR-4485] | 6.5 | 4.6 | 5.5 | 5.4 | 6.2 | 103% | 95.3% | 99.6% | 92.3% | 4.8% | 100% | 96.7% | 92.9% | 91.1% | 42.5% | 105% | 87.6% | 103% | 99.9% | 1.7% | 93.7% | 100% | 94.1% | 102% | -0.2% | 96.2% | 97.5% | 98.6% | 94.7% | 2.4% | 2.5 µM | 1.95 µM | 3.16 µM | 3.27 µM | 2.74 µM
